Usually melting point stands for the temperature of the solid-liquid transition.

Data set [1] relates to naked oocytes (NO). The note with it: previously shown, Byskov et al. Nature 374 (1995), 559-562; cited from earlier work.
Data set [2] concerns oocytes. The data set can be described thus: in vitro fertilization (IVF) assay. It counts as cell-based, mice. The settings on record: GVB oocytes after 18 hours culture, examined 20-22 hours after insemination; control 22%. On the procedure: An in vitro fertilization (IVF) assay can be performed as follows:
Naked oocytes (NO) and cumulus enclosed oocytes (CEO) from immature mice (C57B1 16J×DBAJ/2)F, were isolated and cultured under the same conditions as described for the agonistic oocyte assay (Example 5). […] The dishes were then incubated under defined gas conditions (5% CO2) at 37° C. in a modified (α-MEM IVF-medium. Neither the insemination medium nor the IVF-medium contained hypoxanthine. Examination of the oocytes was carried out 20-22 hours after insemination, in order to check fertilization and to record the number of 2-cell embryos. The percentage fertilization (=fertilization rate) was determined from counts of oocytes that had cleaved into two-cell embryos.

The subject of data set [3] is oocytes. Description: agonistic oocyte assay (germinal vesicle breakdown). The settings on record: for relative GVB (relative effect): indexed against control (0) and FF-MAS (100); for GVB (percentage of oocytes undergoing germinal vesicle breakdown): oocytes cultured 24 hours at 37° C. in Hx-medium (3 mM hypoxanthine). It counts as cell-based, mice. On the procedure: An agonistic oocyte assay can be performed as follows:
Oocytes were obtained from immature female mice (C57BL/6J×DBA/2J F1, Bomholtgaard, Denmark) weighing 13-16 grams, that were kept under controlled temperature (20-22° C.), light (lights on 06.00-18.00) and relative humidity (50-70%). The mice received an intra-peritoneal injection of 0.2 ml gonadotropins (Gonal-F, Serono) containing 20 IU FSH and 48 hours later the animals were killed by cervical dislocation.
The ovaries were dissected out and the oocytes were isolated in Hx-medium (see below) under a stereo microscope by manual rupture of the follicles using a pair of 27 gauge needles. Spherical oocytes displaying an intact germinal vesicle (hereinafter designated GV) were divided in cumulus enclosed oocytes (hereinafter designated CEO) and naked oocytes (hereinafter designated NO) and placed in a-minimum essential medium (α-MEM without ribonucleosides, Gibco BRL, Cat. No. 22561) supplemented with 3 mg/ml bovine serum albumin (BSA, Sigma Cat. No. A-7030), 5 mg/ml human serum albumin (HSA, Statens Seruminstitute, Denmark), 0.23 mM pyruvate (Sigma, Cat. No S-8636), 2 mM glutamine (Flow Cat. No. 16-801), 100 IU/ml penicillin and 100 μg/ml streptomycin (Flow, Cat No. 16-700). This medium was supplemented with 3 mM hypoxanthine (Sigma Cat. No. H-9377) and designated Hx-medium.
The oocytes were rinsed three times in Hx-medium and oocytes of uniform size were divided into groups of CEO and NO. CEO and NO were cultured in 4-well multidishes (Nunclon, Denmark) in which each well contained 0.4 ml of Hx-medium. One control well (i.e., 35-45 oocytes cultured in identical medium with no addition of test compound) was always cultured simultaneously with 3 test wells (35-45 oocytes per well supplemented with test compound).
The oocytes were cultured in a humidified atmosphere of 5% CO2 in air for 24 hours at 37° C. By the end of the culture period, the number of oocytes with germinal vesicle (hereinafter designated GV), germinal vesicle breakdown (hereinafter designated GVB) and polar bodies (hereinafter designated PB), respectively, were counted using a stereomicroscope (Wildt, Leica MZ 12). The percentage GVB, defined as percentage of oocytes undergoing GVB per total number of oocytes in that well, was calculated as:
% GVB=(number of GVB+number of PB/total number oocytes)×100.
The % PB was defined as percentage of oocytes displaying one extruded polar body per total number of oocytes in that well.
The effect of the tested compounds has been indexed against control level and 4,4-5 dimethyl-5β-cholesta-8,14,24-trien-39-ol (hereinafter designated FF-MAS) where controls and FF-MAS are indexed to an effect of 0 and 100, respectively. The relative effect of the tested compound is calculated as follows: […]

Data set [4] has as its system naked oocytes (NO). The data set can be described thus: antagonistic oocyte assay (co-culture with FF-MAS). It counts as cell-based, mice. The note with it: naked oocytes in Hx-medium with 5 μM FF-MAS in co-culture with test compound. The method, then:
An antagonistic oocyte assay can be performed as follows:
20 Oocytes were obtained from immature female mice (C57BI/6J×DBA/2J F1-hybrids, Bomholtgaard, Denmark) weighing 13-16 grams, that were kept under controlled lighting and temperature. The mice received an intra-peritoneal injection of 0.2 ml gonadotropins (Gonal F, Serono, Solna, Sweden, containing 20 IU FSH, alternatively, Puregon, Organon, Swords, Ireland containing 20 IU FSH) and 48 hours later the animals were killed by cervical dislocation.
The ovaries were dissected out and the oocytes were isolated in Hx-medium (see below) under a stereo microscope by manual rupture of the follicles using a pair of 27 gauge needles. […]
By the end of the culture period, the number of oocytes with germinal vesicle (GV) or germinal vesicle breakdown (GVB) and those with polar body (PB) was counted using a stereo-microscope or an inverted microscope with differential interference contrast equipment. The percentage of oocytes with GVB+PB per total number of oocytes were calculated in the test cultures and in the control (positive and negative) culture groups. The relative inhibition of the test compound was calculated by the following formula: […]

`CC(C)=CCC[C@@H](C)[C@H]1CC=C2C3=C(CC[C@@]21C)[C@@]1(C)CC[C@H](O)C(C)(C)[C@@H]1CC3` [FF-MAS, 4,4-Dimethyl-5α-cholesta-8,14,24-trien-3β-ol]: the “induction of meiosis in NO in vitro” value with naked oocytes (NO) [1] was “induce meiosis”.
The molecule `CC(C)CCC[C@@H](C)[C@H]1[C@@H](O)C[C@H]2[C@@H]3CC=C4CCCC[C@]4(C)[C@H]3CC[C@]12C` [Example 1, 16β-Hydroxycholest-5-ene] yielded a melting point of 107 to 108 °C. In the data set on oocytes [2], the “fertilization rate (oocytes cleaved into two-cell embryos)” value was 62%. Moreover, in the data set on oocytes [3], the “relative GVB (relative effect)” value is given as 88% and the “GVB (percentage of oocytes undergoing germinal vesicle breakdown)” value is recorded as 72%.
Regarding “(25R)-160.26-Dihydroxycholest-5-ene [Example 4]”, in the data set with oocytes [3], the “relative GVB (relative effect)” value was determined as 73% and the “GVB (percentage of oocytes undergoing germinal vesicle breakdown)” value worked out at 63%. Moreover, the “PB (oocytes with polar body)” value in the data set with naked oocytes (NO) [4] was found to be 5%.

Values taken from patent publication US20020007079A1, “MEIOSIS REGULATING COMPOUNDS” (priority 1998, published 2002).
